Ends that are not written are not given here.
Legend:
E. coli 70S ribosomes = experiment: Kinetic peptidyl transfer (puromycin) assay on E. coli 70S ribosomes; type: biochemical; settings: 30 nM 70S, 50 µM puromycin, 37 °C; n = 2; read-out: apparent inhibition constant (Ki) of peptidyl transfer
Protocol: The effects of GRn or PRn on peptide bond formation in E. coli ribosome were tested in an in vitro assay that reacts the 70S ribosome loaded with [^35S]-fMet-tRNA^fMet in the P-site with puromycin, an A-site tRNA mimic, and measures the release of the resulting dipeptide containing formyl-methionine covalently bonded to puromycin, as described. E. coli tRNA^fMet (Chemical Block) was aminoacylated with [^35S]-N-formyl-L-methionine (Perkin Elmer) as described. 70S ribosomes were prepared from E. coli (MRE600) as described. 70S ribosomes were stored in the ribosome-storage buffer (20 mM Tris-HCl, pH 7.0; 100 mM NH4Cl; 20 mM MgCl2) at –80 °C. A model mRNA fragment, containing the Shine-Dalgarno sequence and a spacer to position the AUG codon in the P-site and the UUC codon in the A site (GGCAAGGAGGUAAAAAUGUUC AAAAAA), was synthesized by IDT. 70S•mRNA•fMet-tRNA^fMet complexes with GRn (where n = 4, 10 or 20) or PRn (where n = 4, 10, 20 or 40) were formed as follows. 330 nM 70S ribosomes were incubated with 11 µM mRNA in buffer containing 20 mM Tris-acetate (pH 7.0), 100 mM NH4OAc, 12 mM Mg(OAc)2, for 2 min at 37 °C. 730 nM [^35S]-fMet-tRNA^fMet was added and incubated for 5 min at 37 °C. The solution was diluted 9.6-fold with the same buffer, followed by addition of a GRn or PRn repeat peptide (22x relative to its final concentration). The complex was incubated for 5 min at 37 °C prior to addition of puromycin dissolved in the same buffer (see below).
The kinetics of puromycin reaction on the 70S or 80S ribosomes were recorded and analyzed essentially as described. An aliquot (4.5 μl) of the complex prior to addition of puromycin was quenched in 30 μl of saturated MgSO4 in 0.1 M NaOAc to represent the zero-time point. Five microliters of 500 µM puromycin (in the same buffer as that used for the ribosomal complex) was added to 45 μl of the complex to initiate the reaction, yielding estimated final concentrations: 30 nM for the ribosome, 1 µM mRNA, 66 nM [^35S]-fMet-tRNA^fMet, 50 µM puromycin, and varying concentrations of PRn and GRn peptides, from 30 nM to 2 μM. After 6, 15, 30, 90 s, and 5, 15, 30, 60, and (for slower reactions) 180 min, 5-μl aliquots were quenched in 30 μl of saturated MgSO4 in 0.1 M NaOAc. All quenched samples were extracted with 700 μl ethyl-acetate. 600 μl of the extract were mixed with 3.5 ml of Econo-Safe scintillation cocktail (RPI), and the amount of released [^35S]-labeled dipeptide was measured for each time point using a scintillation counter (Beckman Coulter, Inc.).
All time progress curves were recorded in duplicates, using independently prepared 70S or 80S complexes. Reaction rates were calculated using single-exponential or double-exponential (80S complexes) regressions for different concentrations of PRn and GRn using GraphPad Prism 8. Hyperbola fitting in Gnuplot was used to derive apparent Ki-values.

nanoluciferase = experiment: Control: nanoluciferase enzyme activity after translation stopped by cycloheximide; type: biochemical; settings: 1 µM added after translation stopped by CHX; n=8
Protocol: (§1) The following additional controls indicate that DPR-induced changes in fluorescence were caused by translation inhibition.
(§2) Supplementary Fig. 1. […]
(e) Nanoluciferase mRNA was translated in
the absence of DPRs, translation was stopped by cycloheximide (CHX), then 1 µM PR20
or GR20 were added and luminescence was monitored. n=8 independent experiments;
mean of normalized RLU ± SD. […]

[1] = system: firefly luciferase enzyme; experiment: Control: firefly luciferase enzyme activity in RRL without mRNA; type: biochemical; settings: 1 µM added after 120 s to 40 nM enzyme in RRL; n=6
Source text: as §1, §2

[2] = system: ribosomes on endogenous beta-globin mRNA in RRL; experiment: Toeprinting of 80S and 4-5-mer polysome fractions on beta-globin mRNA; type: biochemical, rabbit; settings: for Ratio (START to CDS) / Normalized ratio START/ORF: 80S fraction, primer A, Fig. 2f independent repeat; for Normalized ratio START/ORF: no inhibitor = 1; for normalized ratio START to CDS, MEAN: 4-5-mer, primer B, mean of ten 20 bp windows
Protocol: Toeprinting analyses were carried out similarly to those in refs. [51],[74], using 80S and polysome (4–5-some) fractions collected from polysome profiles as described in “Polysome Profiles” except that reactions were doubled in size (200 μL), performed at 37 °C, and were stopped with ice-cold 1xAMV Buffer (50 mM Tris-HCl pH 8.3, 50 mM KCl, 5 mM MgCl2) with 200 μg/ml cycloheximide before being separated on at 10–35% sucrose gradient in 1xAMV buffer with 0.5 mM spermidine and 1 mM DTT. 600 μl of each fraction (80S or 4–5-mer) was supplemented with 10 mM DTT. Then 10 U of AMV reverse transcriptase (Promega), 120 nmol dNTPs, and 120 pmol of a 5'[6-carboxyfluorescein (FAM)]-labeled primer (IDT-DNA) were added. Two primers specific to the endogenous beta-globin mRNA in RRL were used in separate reactions: 5′-(FAM)-GGACTCGAAGAACCTCTG (as in ref. [74]) annealed 136 nucleotides downstream of the AUG or 5′-(FAM)-[…] annealed to the end of the 3'-UTR. Primers were extended at 37 °C for 30 min, and then the reaction were extracted in 1:1 phenol:chloroform, supplemented with 1/10 volume of 3 M sodium acetate pH 5.2, and precipitated with 2.5 volumes of 100% ethanol. Pellets were resuspended in 10 μl of deionized formamide (Applied Biosystems) with 1/20 volume of a 35-500 nucleotide orange-dye labeled DNA size standard (MCLab) and loaded onto a 96-well plate. The samples were sent for fragment analysis by capillary electrophoresis to the UMass Chan Medical School Molecular Biology Core Laboratory using an ABI3730XL DNA Fragment Analyzer with capillaries loaded with POP-7 polymer and with an injection voltage of 12.5 kV. Data collection was performed with GeneMapper software (ABI). Data were exported as.fsa files and were analyzed (aligning to ladder and background correction) in GeneMarker 3.0.1 software (SoftGenetics) running in demo mode. Screen captures of traces were taken and traces were integrated using the “Quantification” feature and manually adjusting sliders to include the desired nucleotide range.

Row | Molecule | Ki (E. coli 70S ribosomes) [nM] | effect on nanoluciferase enzyme activity (nanoluciferase) | effect on firefly luciferase enzyme activity [1] | site of ribosome accumulation, toe-printing of polysome fractions [2] | Ratio (START to CDS) [2] | Normalized ratio START/ORF [2] | normalized ratio START to CDS, MEAN ([2]; Fig. 2g) | normalized ratio START to CDS, MEAN ([2]; Fig. 2h independent repeat)
1 | N=C(N)NCCC[C@H](NC(=O)CNC(=O)[C@H](CCCNC(=N)N)NC(=O)CNC(=O)[C@H](CCCNC(=N)N)NC(=O)CNC(=O)[C@H](CCCNC(=N)N)NC(=O)CNC(=O)[C@H](CCCNC(=N)N)NC(=O)CNC(=O)[C@H](CCCNC(=N)N)NC(=O)CNC(=O)[C@H](CCCNC(=N)N)NC(=O)CNC(=O)[C@H](CCCNC(=N)N)NC(=O)CNC(=O)[C@H](CCCNC(=N)N)NC(=O)CNC(=O)[C@H](CCCNC(=N)N)NC(=O)CNC(=O)[C@H](CCCNC(=N)N)NC(=O)CNC(=O)[C@H](CCCNC(=N)N)NC(=O)CNC(=O)[C@H](CCCNC(=N)N)NC(=O)CNC(=O)[C@H](CCCNC(=N)N)NC(=O)CNC(=O)[C@H](CCCNC(=N)N)NC(=O)CNC(=O)[C@H](CCCNC(=N)N)NC(=O)CNC(=O)[C@H](CCCNC(=N)N)NC(=O)CNC(=O)[C@H](CCCNC(=N)N)NC(=O)CNC(=O)[C@H](CCCNC(=N)N)NC(=O)CNC(=O)[C@H](CCCNC(=N)N)NC(=O)CN)C(=O)O [GR20] | 164 ± 31 | do not affect enzyme activity | do not affect enzyme activity | accumulate within the open reading frame | 1.504 | 0.5576 | 0.4196 | 0.5964
2 | PRPRPRPRPRPRPRPRPRPRPRPRPRPRPRPRPRPRPRPR [PR20] | 44 ± 9 | do not affect enzyme activity | do not affect enzyme activity | accumulate at the start codon | 5.983 | 2.218 | 2.067 | 3.436
